≈ marks a conversion by molar mass, not a printed value. Like-named read-outs stand apart in the source and are kept apart here.
Columns and labels:
[1] = test system: murine splenocyte suspensions (BALB/c and C57BL/6J mice); test: Mixed Lymphocyte Reaction (MLR); assay type: cell-based; conditions: for activity at 0.05 µg/mL / activity at 0.2 µg/mL / activity at 0.8 µg/mL / activity at 3.1 µg/mL / activity at 12.5 µg/mL / activity at 50 µg/mL: Mus musculus, Splenocyte, read-out: % MLR (percentage of positive control)
Procedure: I. Mixed Lymphocyte Reaction
1. Murine splenocyte suspensions were prepared separately from BALB/c and C57BL/6J mice. […] The cell concentrations were adjusted to 2.5×10^6 cells/ml. Aliquots of each cell population were removed to separate tubes, and the remaining two cell suspensions combined to one tube.
(§1) 2. Serial, log10 dilutions of the pure compound were made in absolute ethanol, and 10 μl of each dilution was added to wells of microtiter test plates, and allowed to dry.
3. A volume of 0.2 ml of the combined splenocyte suspensions was added to triplicate test wells. Positive control wells received combined splenocyte suspensions in the absence of the test compounds. Negative control wells consisted of separate (not mixed) splenocyte suspensions cultured in the absence of the test compounds.
4. Plates were incubated in 5% CO2 at 37° C. for 86 hours.
5. A volume of 0.05 ml of ^3 H-thymidine (20 μCi/ml) was added to each well, and the plates were incubated in 5% CO2 at 37° C. for an additional 5 hours.
6. The contents of each well of the microtiter plates were harvested onto glass fiber filter strips, and the resulting filter discs placed in scintillation vials to which 2.0 ml of scintillation fluid was added.
7. The amount of incorporated ^3 H-thymidine was determined by counting the vials in a liquid scintillation counter.
8. Triplicate counts were averaged, and the data reported as a percentage of the positive control.

[2] = Lymphocyte Viability Assay (LCV); assay type: cell-based, murine; conditions: mouse, splenocytes, read-out: % LCV (percentage of positive control)
Procedure: (§2) II. Lymphocyte Viability Assay
(§3) 1. Compounds were similarly tested in parallel with the MLR to determine their toxic effects on lymphoid cells using the lymphocyte viability assay (LCV).
as §1
(§4) 3. Murine splenocyte suspensions were prepared from BALB/c mice. […] The cell concentrations were adjusted to 2.5×10^6 cells/ml.
(§5) 4. A volume of 0.2 ml of the splenocyte suspension was added to replicate test wells. Positive control wells received splenocyte suspensions in the absence of the test compounds.
(§6) 5. Plates were incubated at 37° C. for 86 hours. At the end of the incubation period, a volume of 75 μl of a 2.0 mg/ml solution of MTT was added to each well, and the plates were returned to the incubator for an additional 5 hours.
(§7) 6. The supernatants from each microwell were then removed, and a volume of 200 μl of isopropanol was added and the contents mixed.
(§8) 7. Values were obtained by comparing the optical densities (determined at 570 and 650 nm) of wells containing the test compounds with those of wells containing cells and medium only (positive control). The results are expressed as a percentage of the positive control.
(§9) 8. Replicate counts were averaged, and the data reported as a percentage of the positive control. An LCV value of less than 60% of the positive control is an indication of cytotoxicity of the test compounds for lymphoid cells.

P388 cells = test: Antiproliferative effects against P388 cells (antitumor, MTT); assay type: cell-based; conditions: for IC50: Mus musculus, P388, 48 hour exposure; for P388 IC50: 48 hour exposure
Procedure: IV. Antitumor Methodology
To assess the antiproliferative effects against P388 cells, 200 μl cultures (96-well tissue culture plates, Nunc, Denmark) were established at 1×10^5 cells/ml in drug-free medium or medium containing the pure compounds/crude extracts at a final dilution or 1:500 and at various concentrations. Solvent for all dilutions was methanol, which was removed from plates under vacuum. All experimental cultures were initiated in media containing Gentamicin sulfate (50 μg/ml; Schering Corporation, Kenilworth, NJ).
To quantitate the effects of pure compounds/crude extracts on cell proliferation, 75 μl of warm growth medium containing 5 mg/ml MTT was added to each well, cultures were returned to the incubator, and were left undisturbed for 90 minutes. To spectrophotometrically quantitate formation of reduced formazan, plates were centrifuged (900×g, 5 minutes), culture fluids removed by aspiration, and 200 μl of acidified isopropanol (2 ml concentrated HCl/liter isopropanol) added per well. The absorbance of the resulting solutions were measured at 570 nm with a plate reader (MR700 Microplate Reader, Dynatech Laboratories, Chantilly, VA).

[3] = test system: lymphoid cells (murine BALB/c splenocytes); test: Lymphocyte Viability Assay (LCV); assay type: cell-based
Procedure: as §2, §3, §1, §4, §5, §6, §7, §8, §9

IC50 (P388 cells) [µg/mL] | SMILES | activity at 0.05 µg/mL ([1]; 0.05 μg/ml) [%] | activity at 0.2 µg/mL ([1]; 0.2 μg/ml) [%] | activity at 0.8 µg/mL ([1]; 0.8 μg/ml) [%] | activity at 3.1 µg/mL ([1]; 3.1 μg/ml) [%] | activity at 12.5 µg/mL ([1]; 12.5 μg/ml) [%] | activity at 50 µg/mL ([1]; 50 μg/ml) [%] | viability ([2]; 0.05 μg/ml) [%] | viability ([2]; 0.2 μg/ml) [%] | viability ([2]; 0.8 μg/ml) [%] | viability ([2]; 3.1 μg/ml) [%] | viability ([2]; 12.5 μg/ml) [%] | viability ([2]; 50 μg/ml) [%] | other results
15.1 (≈ 56.7 µM) | CCCCCCCCCCCCCCC/C=C/C=O [CH3 (CH2)14 CH=CH--CHO] | 150 | 105 | 135 | 146 | 0 | 0 | 130 | 175 | 181 | 186 | 89 | 5 | 
67 (≈ 219 µM) | C#CC(C)(O)/C=C/CCCCCCCCCCCCCCC (stereo not shown) [CH3 (CH2)14 CH=CH--COH(CH3)--C≡CH] | 152 | 161 | 171 | 115 | 65 | 0 | 53 | 107 | 118 | 109 | 54 | 5 | 
9.3 (≈ 38.4 µM) | CCCCCCCCCCCCCCCCO [CH3 (CH2)14 CH2 OH] | 136 | 128 | 127 | 137 | 0 | 0 | 70 | 86 | 37 | 98 | 0 | 0 | 
44 (≈ 183 µM) | CCCCCCCCCCCCCCCC=O [CH3 (CH2)14 CHO] | 59 | 94 | 80 | 73 | 36 | 0 | 237 | 182 | 161 | 202 | 153 | 132 | 
100 (≈ 299 µM) | C#CC(/C=C/CCCCCCCCCCCCCCC)OC(C)=O (stereo not shown) [CH3 (CH2)14 CH=CH--CHOAc--C≡CH] | 73 | 0 | 0 | 0 | 0 | 0 | 58 | 53 | 30 | 30 | 23 | 11 | 
200 (≈ 652 µM) | CC#CC(O)/C=C/CCCCCCCCCCCCCCC (stereo not shown) [CH3 (CH2)14 CH=CH--CHOH--C≡C--CH3] | 137 | 143 | 83 | 0 | 0 | 0 | 154 | 107 | 75 | 86 | 67 | 60 | 

The remaining lines, values behind:

SMILES | IC50 (P388 cells) [µg/mL] | activity at 0.05 µg/mL ([1]; 0.05 μg/ml) [%] | activity at 0.2 µg/mL ([1]; 0.2 μg/ml) [%] | activity at 0.8 µg/mL ([1]; 0.8 μg/ml) [%] | activity at 3.1 µg/mL ([1]; 3.1 μg/ml) [%] | activity at 12.5 µg/mL ([1]; 12.5 μg/ml) [%] | activity at 50 µg/mL ([1]; 50 μg/ml) [%] | viability ([2]; 0.05 μg/ml) [%] | viability ([2]; 0.2 μg/ml) [%] | viability ([2]; 0.8 μg/ml) [%] | viability ([2]; 3.1 μg/ml) [%] | viability ([2]; 12.5 μg/ml) [%] | viability ([2]; 50 μg/ml) [%] | other results
C#CC(O)C=CCCCCC (stereo not shown) [CH3 (CH2)4 CH= CH--CHOH--C≡CH] |  |  |  |  |  |  |  |  |  |  |  |  |  | % MLR (percentage of positive control) ([1]; 0.05 μg/ml): 112%; % MLR (percentage of positive control) ([1]; 0.2 μg/ml): 14%; % MLR (percentage of positive control) ([1]; 0.8 μg/ml): 82%; % MLR (percentage of positive control) ([1]; 3.1 μg/ml): 0%; % MLR (percentage of positive control) ([1]; 12.5 μg/ml): 0%; % MLR (percentage of positive control) ([1]; 50 μg/ml): 0%; % LCV (percentage of positive control) ([3]; 0.05 μg/ml): 109%; % LCV (percentage of positive control) ([3]; 0.2 μg/ml): 121%; % LCV (percentage of positive control) ([3]; 0.8 μg/ml): 119%; % LCV (percentage of positive control) ([3]; 3.1 μg/ml): 89%; % LCV (percentage of positive control) ([3]; 12.5 μg/ml): 65%; % LCV (percentage of positive control) ([3]; 50 μg/ml): 7%; P388 IC50 (P388 cells): 74.0 µg/mL
CCCCCCCCCCCCCCC/C=C/C(O)C#N (stereo not shown) [CH3 (CH2)14 CH=CH--CHOH--C≡N] | 28 (≈ 95.4 µM) | 60 | 89 | 85 | 80 | 0 | 0 | 132 | 135 | 161 | 144 | 77 | 37 | 
C#CC(O)CCCCCCCCCCCCCCCCC (stereo not shown) [CH3 (CH2)16 CHOH--C≡CH] | 48 (≈ 163 µM) | 0 | 0 | 0 | 0 | 0 | 0 | 61 | 68 | 39 | 56 | 7 | 2 | 
C#CC(O)C=CCCCCCCCCCCCCCCCCCCC (stereo not shown) [CH3 (CH2)18 CH=CH--CHOH--C≡CH] |  |  |  |  |  |  |  |  |  |  |  |  |  | % MLR (percentage of positive control) ([1]; 0.05 μg/ml): 103%; % MLR (percentage of positive control) ([1]; 0.2 μg/ml): 103%; % MLR (percentage of positive control) ([1]; 0.8 μg/ml): 0%; % MLR (percentage of positive control) ([1]; 3.1 μg/ml): 0%; % MLR (percentage of positive control) ([1]; 12.5 μg/ml): 0%; % MLR (percentage of positive control) ([1]; 50 μg/ml): 0%; % LCV (percentage of positive control) ([3]; 0.05 μg/ml): 58%; % LCV (percentage of positive control) ([3]; 0.2 μg/ml): 70%; % LCV (percentage of positive control) ([3]; 0.8 μg/ml): 61%; % LCV (percentage of positive control) ([3]; 3.1 μg/ml): 28%; % LCV (percentage of positive control) ([3]; 12.5 μg/ml): 30%; % LCV (percentage of positive control) ([3]; 50 μg/ml): 39%; P388 IC50 (P388 cells): 219 µg/mL

From patent publication US5166379A, “Synthesis of compounds with biological activity, and methods of use” (Harbor Branch Oceanographic Institution, Inc., priority 1990, dated 1992)
